Data taken from patent publication US6605638B1, “Use of branched chain fatty acids and derivatives thereof for inhibition of P-glycoprotein” (D-Pharm Limited, priority 2000, dated 2003).
Each block holds one compound with its values, some of them ahead of it.

Key:
MES-SA/Dx5 cells = assay: MTT assay of doxorubicin toxicity in multi-drug resistant cells; conditions: for % Toxicity: alone, 72 hours
P-glycoprotein [1] = target: T1, P-glycoprotein (Bos taurus, UniProt A0A3Q1MB23); assay: Vincristine transport/clearance across endothelial cell monolayers, in vitro BBB co-culture model; format: cell-based, bovine; set-up: P-glycoprotein is expressed in cultured endothelial cells; endogenous in cells; host or cells: primary bovine brain capillary endothelial cells, co-cultured with newborn rat astrocytes in the lower compartment
[2] = system: endothelial cell monolayers; assay: [14C]-sucrose permeability (integrity) of endothelial cell monolayers, in vitro BBB model
P-glycoprotein [3] = target: T1, P-glycoprotein; assay: Vincristine accumulation (uptake) in endothelial cells, in vitro BBB model

T1 sequence (A0A3Q1MB23 1-1267): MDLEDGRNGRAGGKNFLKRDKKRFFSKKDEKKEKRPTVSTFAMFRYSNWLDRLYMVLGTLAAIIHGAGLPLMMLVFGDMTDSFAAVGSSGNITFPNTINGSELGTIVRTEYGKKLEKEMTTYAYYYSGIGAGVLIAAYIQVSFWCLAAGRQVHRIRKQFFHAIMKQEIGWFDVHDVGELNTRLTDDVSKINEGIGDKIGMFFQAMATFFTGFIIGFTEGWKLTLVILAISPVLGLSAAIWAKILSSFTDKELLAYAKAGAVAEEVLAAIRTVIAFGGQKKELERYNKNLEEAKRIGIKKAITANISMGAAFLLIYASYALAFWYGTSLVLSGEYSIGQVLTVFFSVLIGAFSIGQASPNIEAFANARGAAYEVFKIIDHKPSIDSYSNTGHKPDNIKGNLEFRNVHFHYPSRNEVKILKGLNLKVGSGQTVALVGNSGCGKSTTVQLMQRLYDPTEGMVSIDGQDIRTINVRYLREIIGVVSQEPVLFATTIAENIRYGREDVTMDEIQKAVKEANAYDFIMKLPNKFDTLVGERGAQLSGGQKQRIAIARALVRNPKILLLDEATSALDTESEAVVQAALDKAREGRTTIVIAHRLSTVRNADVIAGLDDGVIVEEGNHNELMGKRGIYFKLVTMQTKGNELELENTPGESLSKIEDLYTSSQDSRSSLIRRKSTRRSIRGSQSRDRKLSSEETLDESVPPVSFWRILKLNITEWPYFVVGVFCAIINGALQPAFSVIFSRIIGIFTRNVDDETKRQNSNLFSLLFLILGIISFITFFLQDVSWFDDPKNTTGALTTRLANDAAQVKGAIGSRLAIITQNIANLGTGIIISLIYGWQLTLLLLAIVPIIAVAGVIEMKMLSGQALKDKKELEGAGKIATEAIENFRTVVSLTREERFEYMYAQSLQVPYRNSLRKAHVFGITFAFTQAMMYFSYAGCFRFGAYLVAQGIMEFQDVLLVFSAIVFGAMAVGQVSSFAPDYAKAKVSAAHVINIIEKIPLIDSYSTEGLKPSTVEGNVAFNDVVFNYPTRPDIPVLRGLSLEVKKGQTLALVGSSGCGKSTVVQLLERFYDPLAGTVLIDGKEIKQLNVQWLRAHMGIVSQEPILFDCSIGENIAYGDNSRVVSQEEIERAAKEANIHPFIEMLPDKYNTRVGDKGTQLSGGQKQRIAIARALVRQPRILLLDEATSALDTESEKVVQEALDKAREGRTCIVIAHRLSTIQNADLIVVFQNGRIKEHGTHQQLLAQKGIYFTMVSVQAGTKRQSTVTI

Compound: CCCCCCCCCCC(CCC)C(=O)O (stereo not drawn) [DP-3,10, 2-propyldodecanoic acid]
% Toxicity (MES-SA/Dx5 cells; 12.5 μg/ml): 0.1%

Clearance of vincristine (P-glycoprotein [1]; Example 4, even with lowest concentration 0.08 mg/ml, similar to control without cells): significant clearance
Transport of vincristine (P-glycoprotein [1]; Example 5, 0.001 mg/ml): significant increase
Transport of vincristine (P-glycoprotein [1]; Example 5, 0.02 and 0.08 mg/ml): Larger effects
Transport of vincristine (P-glycoprotein [1]; Example 5 conclusion, low concentration 0.001—0.01 mg/ml): increase
Paracellular breakdown (opening of the tight junctions) of endothelial cells ([2]; 0.01 mg/ml, 48 hours incubation): no paracellular breakdown
Increase in vincristine uptake compared with verapamil (P-glycoprotein [3]; Example 5, 0.001, 0.005 or 0.01 mg/ml, 60 min): lower than that observed with verapamil
Vincristine accumulation in the cells relative to that caused by verapamil (P-glycoprotein [3]; Example 5, 0.02 or 0.08 mg/ml, 60 minute incubation): 2-3 fold
Compound: CCCCCCCCCCCCCCC(CCC)C(=O)O (stereo not drawn) [DP-3,14, 2-propylhexadecanoic acid]
Sucrose permeability of the monolayer ([2]; Example 4, 0.08 mg/ml, 60 min): 274%
Sucrose permeability of the monolayer ([2]; Example 4, 0.16 mg/ml, 60 min): 266%
Sucrose permeability of the monolayer ([2]; Example 4, […], 60 min): 278%
Sucrose permeability of the monolayer (significant decrease) ([2]; Example 5, 0.001 mg/ml): 66%
Sucrose permeability of the monolayer (significant decrease) ([2]; Example 5, 0.005 mg/ml): 68%
Sucrose permeability of the monolayer ([2]; Example 5, 0.01 mg/ml): No change
Sucrose permeability of the monolayer ([2]; Example 5, 0.02 mg/ml, 60 min): 452%
Sucrose permeability of the monolayer ([2]; Example 5, 0.08 mg/ml, 60 min): 574%
Transport of sucrose (paracellular marker) ([2]; Example 5 conclusion, 0.001—0.01 mg/ml): no increase
Cellular accumulation of vincristine compared with verapamil (P-glycoprotein [3]; Example 4, 0.08 and 0.16 mg/ml, 60 min): more pronounced than the same effect induced by verapamil

Compound: C#CCC(CCCCCCCCCCCC)C(=O)O (stereo not drawn) [DP-3-yl,12, 2,3-propynyltetradecanoic acid]
% Toxicity (MES-SA/Dx5 cells; 3.125 μg/ml): 0.48%

Compound: CCCCCCCC(CCCCCCC)C(=O)O [DP-7,7, 2-heptylnonanoic acid]
% Toxicity (MES-SA/Dx5 cells; 3.125 μg/ml): 0.1%

Compound: COc1cccc2c1C(=O)c1c(O)c3c(c(O)c1C2=O)C[C@@](O)(C(=O)CO)C[C@@H]3O[C@H]1C[C@H](N)[C@H](O)[C@H](C)O1 [Dox, doxorubicin, reference compound]
% Toxicity (MES-SA/Dx5 cells; 0.125 μg/ml): 0%
Concentration up to which MES-SA/Dx5 cells are resistant (MES-SA/Dx5 cells; calibration experiments): ≤ 250 ng/mL

Compound: CC[C@]1(O)C[C@H]2CN(CCc3c([nH]c4ccccc34)[C@@](C(=O)OC)(c3cc4c(cc3OC)N(C=O)[C@H]3[C@@](O)(C(=O)OC)[C@H](OC(C)=O)[C@]5(CC)C=CCN6CC[C@]43[C@@H]65)C2)C1 [vincristine, [γ-^3H]Vincristine sulphate, reference compound]
Toxicity for the endothelial cells / integrity of the monolayers ([2]; Example 4, 50 nM vincristine, verapamil 25 μM): not toxic
Permeability coefficient for [14C]-sucrose (Pesucrose) ([2]; Example 4, with 50 nM vincristine): 1.33±0.08 ×10^−3 cm/min
